What was measured:
MK2 [1] = target: T1, MK2 (Homo sapiens, UniProt P49137); test: MK2 degradation in human THP-1 monocytic cells (MSD, 24 h); format: cell-based; set-up: endogenous in cells; key to MK2 MSD THP-1 degradation 24 h GMean External Abs DC50: A (<0.001 μM); B (0.001-0.01 μM); C (0.01-0.1 μM); D (>0.1 μM); —: “-”=not tested or inactive; details: for Dmax: THP-1, THP-1 cells; for DC50 / MK2 MSD THP-1 degradation 24 h GMean External Abs DC50: THP-1 cells; for DC50: read-out: MK2 MSD THP-1 degradation 24 h GMean External Abs DC50
T1 sequence (P49137 whole entry): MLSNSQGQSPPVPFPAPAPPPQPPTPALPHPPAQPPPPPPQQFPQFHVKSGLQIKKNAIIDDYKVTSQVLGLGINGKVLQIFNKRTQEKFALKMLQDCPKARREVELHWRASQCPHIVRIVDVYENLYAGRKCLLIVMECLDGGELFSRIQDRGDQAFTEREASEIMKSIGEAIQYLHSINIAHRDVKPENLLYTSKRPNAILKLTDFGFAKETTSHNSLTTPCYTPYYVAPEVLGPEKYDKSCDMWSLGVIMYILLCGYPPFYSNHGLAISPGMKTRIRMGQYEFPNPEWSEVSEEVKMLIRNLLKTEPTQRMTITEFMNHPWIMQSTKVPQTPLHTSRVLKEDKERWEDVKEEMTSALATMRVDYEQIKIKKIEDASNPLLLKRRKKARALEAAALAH
In short: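 Readout: residual MK2 protein in THP-1 lysates, measured by MSD electrochemiluminescence sandwich assay after 24 h compound exposure (≤10-point serial dilutions, 0.1% DMSO, 37 °C). Curves normalised between lysis-buffer and DMSO-cell signals; DC50 by 4-parameter logistic fit.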

MK2 [2] = target: T1, MK2; test: MK2 degradation in human SW1353 cells (MSD, 24 h); format: cell-based; set-up: endogenous in cells; host or cells: SW-1353 (ATCC HTB-94); key to MK2 MSD SW1353 degradation 24 h GMean External Abs DC50: A (<0.001 μM); B (0.001-0.01 μM); C (0.01-0.1 μM); D (>0.1 μM); —: “-”=not tested or inactive; key to MK2 MSD SW 1353 24 h Dmax %: —: “-”=not tested or inactive; details: for Dmax: read-out: MK2 MSD SW 1353 24 h Dmax %; for DC50: read-out: MK2 MSD SW1353 degradation 24 h GMean External Abs DC50
In short: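 DC50 derived by 4-parameter logistic fit, with DMSO-treated signal as top and lysis-buffer signal as bottom. Remaining MK2 was measured by MSD electrochemiluminescent sandwich assay in RIPA lysates of human SW1353 cells exposed for 24 h at 37 °C to serially diluted compound in 0.1% DMSO.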

| Structure (SMILES) | Dmax (MK2 [1]) [%] | DC50 (MK2 [1]) [nM] | Dmax (MK2 [2]) [%] | DC50 (MK2 [2]) [nM] | MK2 MSD SW1353 degradation 24 h GMean External Abs DC50 (MK2 [2]) | MK2 MSD THP-1 degradation 24 h GMean External Abs DC50 (MK2 [1]) | MK2 MSD SW 1353 24 h Dmax % (MK2 [2]) |
| --- | --- | --- | --- | --- | --- | --- | --- |
| C[C@@H]1CNc2c(sc3ccc4nc(-c5ccc(CNC(=O)COCCOCCOCCOCCc6cccc7c6n(C)c(=O)n7C6CCC(=O)NC6=O)cc5)ccc4c23)C(=O)N1 (stereo partly shown) [Compound I-92] | > 75 | 1 to 10 | > 75 | 1 to 10 |  |  |  |
| Cn1c(=O)n(C2CCC(=O)NC2=O)c2cccc(C3CCN(CC4CCN(c5ccc(F)c(-c6cc(-c7cc8c([nH]7)CCNC8=O)ccn6)c5)CC4)CC3)c21 (stereo not shown) [Compound I-146] | < 50 | > 100 | < 50 | > 100 |  |  |  |
| Cn1c(=O)n(C2CCC(=O)NC2=O)c2ccc(N3CCC(CN4CCN(c5ccc6cc(-c7cc(Nc8ccnc(N)n8)cc8cn[nH]c78)oc6c5)CC4)CC3)cc21 (stereo not shown) [Compound I-454] | < 50 | > 100 | < 50 | > 100 |  |  |  |
| C[C@@H]1CNc2c(sc3ccc4nc(-c5ccc(CNC(=O)CCCCCCCc6cccc7c6n(C)c(=O)n7C6CCC(=O)NC6=O)cc5)ccc4c23)C(=O)N1 (stereo partly shown) [Compound I-88] | > 75 | 1 to 10 | > 75 | 1 to 10 |  |  |  |
| Cc1ccc(NC(=O)c2cccc(C(F)(F)F)c2)cc1N1Cc2cnc(Nc3ccc(N4CCN(CCCCC(=O)N[C@H](C(=O)N5C[C@H](O)C[C@H]5C(=O)N[C@@H](C)c5ccc(-c6scnc6C)cc5)C(C)(C)C)CC4)nc3)nc2N(C)C1=O [Compound I-463] | > 75 | 1 to 10 | > 75 | 1 to 10 |  |  |  |
| C[C@@H]1Cc2oc(-c3ccnc(-c4ccc(N5CCN(CC6CCN(c7ccc8c(c7)n(C)c(=O)n8C7CCC(=O)NC7=O)CC6)CC5)nc4)c3)cc2C(=O)N1 (stereo partly shown) [Compound I-209] | < 50 | > 100 | < 50 |  | — |  |  |
| Cc1cc(N2CCN(CCCc3ccc4c(c3)n(C)c(=O)n4C3CCC(=O)NC3=O)CC2)ccc1-c1ccc2c(ccc3sc4c(c32)NC[C@@H](C)NC4=O)n1 (stereo partly shown) [Compound I-260] | 50 to 75 |  | > 75 | < 1 |  | — |  |
| C[C@@H]1CNc2c(sc3ccc4nc(-c5ccnc(N6CCN(CC7CCN(c8cccc9c8n(C)c(=O)n9C8CCC(=O)NC8=O)CC7)CC6)c5)ccc4c23)C(=O)N1 (stereo partly shown) [Compound I-276] | > 75 | 1 to 10 | > 75 | 1 to 10 |  |  |  |
| C[C@@H]1CNc2c(sc3ccc4nc(N5C[C@H]6C[C@@H]5CN6CC5CCN(c6cccc7c6n(C)c(=O)n7C6CCC(=O)NC6=O)CC5)ccc4c23)C(=O)N1 (stereo partly shown) [Compound I-182] | < 50 |  | < 50 |  | — | — |  |
| Cn1c(=O)n(C2CCC(=O)NC2=O)c2cccc(N3CC(CN4CCN(c5ccc(-c6cc(-c7cc8c([nH]7)C7(CC7)CNC8=O)ccn6)cc5)CC4)C3)c21 (stereo not shown) [Compound I-190] | > 75 | < 1 | > 75 | < 1 |  |  |  |
| C[C@@H]1CNc2c(sc3ccc4nc(-c5ccc(N6CCN(CC7CCN(c8ccc(C9CCC(=O)NC9=O)cc8)CC7)CC6)nc5)ccc4c23)C(=O)N1 (stereo partly shown) [Compound I-421] | > 75 | 1 to 10 | > 75 | 1 to 10 |  |  |  |
| C[C@@H]1CNc2c(sc3ccc4nc(-c5ccnc(N6CCC(CN7CCN(c8ccc9c(c8)n(C)c(=O)n9C8CCC(=O)NC8=O)CC7)CC6)c5)ccc4c23)C(=O)N1 (stereo partly shown) [Compound I-277] | > 75 | < 1 | > 75 | < 1 |  |  |  |
| C[C@@H]1CNc2c(sc3ccc4nc(N5CCC(N6CCC7(CCN(c8ccc9c(c8)n(C)c(=O)n9C8CCC(=O)NC8=O)CC7)C6)CC5)ccc4c23)C(=O)N1 (stereo partly shown) [Compound I-410] | > 75 | < 1 | > 75 | < 1 |  |  |  |
| C[C@@H]1CNc2c(sc3ccc4nc(N5CC6CCC(C5)N6CC5CCN(c6cccc7c6n(C)c(=O)n7C6CCC(=O)NC6=O)CC5)ccc4c23)C(=O)N1 (stereo partly shown) [Compound I-436] | < 50 | > 100 |  | > 100 |  |  | — |
| Cn1c(=O)n(C2CCC(=O)NC2=O)c2ccc(N3CC(CN4CCN(c5ccc(-c6cc(-c7cc8c([nH]7)C7(CC7)CNC8=O)ccn6)c(F)c5)CC4)C3)cc21 (stereo not shown) [Compound I-425] | > 75 | < 1 | > 75 | < 1 |  |  |  |
| C[C@@H]1CNc2c(sc3ccc4nc(-c5ccc(N6CCC7(CC6)CN(CCCCCCc6cccc8c6n(C)c(=O)n8C6CCC(=O)NC6=O)C7)cc5)ccc4c23)C(=O)N1 (stereo partly shown) [Compound I-294] | > 75 | < 1 | > 75 | 1 to 10 |  |  |  |
| Cn1c(=O)n(C2CCC(=O)NC2=O)c2ccc(N3CC(CN4CCN(c5ccc(-c6cc(-c7cc8c(s7)CCNC8=O)ccn6)cc5)CC4)C3)cc21 (stereo not shown) [Compound I-407] | < 50 | > 100 |  | > 100 |  |  | — |
| Cn1c(=O)n(C2CCC(=O)NC2=O)c2ccc(N3CCC(CN4CCN(c5ccc6occc6c5-c5cc(Nc6ccnc(N)n6)cc6cn[nH]c56)CC4)CC3)cc21 (stereo not shown) [Compound I-453] | < 50 | > 100 | < 50 | > 100 |  |  |  |
| Cc1cc(N2CCN(CCCc3ccc4c(c3)n(C)c(=O)n4C3CCC(=O)NC3=O)CC2)ncc1-c1ccc2c(ccc3sc4c(c32)NC[C@@H](C)NC4=O)n1 (stereo partly shown) [Compound I-249] | 50 to 75 | 1 to 10 | 50 to 75 | < 1 |  |  |  |
| Cc1nc(N2CCN(CC3CCN(c4ccc5c(c4)n(C)c(=O)n5C4CCC(=O)NC4=O)CC3)CC2)ccc1-c1ccc2c(ccc3sc4c(c32)NC[C@@H](C)NC4=O)n1 (stereo partly shown) [Compound I-283] | > 75 | < 1 | > 75 | < 1 |  |  |  |

Continued, in another order:

| Dmax (MK2 [1]) [%] | DC50 (MK2 [1]) [nM] | Dmax (MK2 [2]) [%] | DC50 (MK2 [2]) [nM] | MK2 MSD SW1353 degradation 24 h GMean External Abs DC50 (MK2 [2]) | MK2 MSD THP-1 degradation 24 h GMean External Abs DC50 (MK2 [1]) | Structure (SMILES) | MK2 MSD SW 1353 24 h Dmax % (MK2 [2]) |
| --- | --- | --- | --- | --- | --- | --- | --- |
| > 75 | < 1 | > 75 | < 1 |  |  | C[C@@H]1CNc2c(sc3ccc4nc(N5CCC(CN6CCC7(CC6)CCN(c6ccc8c(c6)n(C)c(=O)n8C6CCC(=O)NC6=O)CC7)CC5)ccc4c23)C(=O)N1 (stereo partly shown) [Compound I-391] |  |
| > 75 | < 1 | > 75 | < 1 |  |  | C[C@@H]1CNc2c(sc3ccc4nc(-c5ccc(N6CCN(CCCc7cccc8c7n(C)c(=O)n8C7CCC(=O)NC7=O)CC6)nc5)ccc4c23)C(=O)N1 (stereo partly shown) [Compound I-288] |  |
| > 75 | < 1 | > 75 | < 1 |  |  | Cc1cc(-c2ccc3c(ccc4sc5c(c43)NC[C@@H](C)NC5=O)n2)cnc1N1CCN(CC2CCN(c3ccc4c(c3)n(C)c(=O)n4C3CCC(=O)NC3=O)CC2)CC1 (stereo partly shown) [Compound I-272] |  |
| > 75 | < 1 | > 75 | < 1 |  |  | C[C@@H]1CNc2c(sc3ccc4nc(-c5ccc(N6CCN(CCc7ccc8c(c7)n(C)c(=O)n8C7CCC(=O)NC7=O)CC6)nc5)ccc4c23)C(=O)N1 (stereo partly shown) [Compound I-279] |  |
| 50 to 75 | < 1 | > 75 | < 1 |  |  | Cc1cc(N2CCN(CC3CN(c4ccc5c(c4)n(C)c(=O)n5C4CCC(=O)NC4=O)C3)CC2)ncc1-c1ccc2c(ccc3sc4c(c32)NC[C@@H](C)NC4=O)n1 (stereo partly shown) [Compound I-250] |  |
| > 75 | < 1 | > 75 | 1 to 10 |  |  | C[C@@H]1CNc2c(sc3ccc4nc(-c5cccc(N6CCN(CCCCCCCc7cccc8c7n(C)c(=O)n8C7CCC(=O)NC7=O)CC6)c5)ccc4c23)C(=O)N1 (stereo partly shown) [Compound I-95] |  |
| > 75 | < 1 | > 75 | < 1 |  |  | C[C@@H]1CNc2c(sc3ccc4nc(-c5ccc(N6CCN(C7CN(c8cccc9c8n(C)c(=O)n9C8CCC(=O)NC8=O)C7)CC6)cc5)ccc4c23)C(=O)N1 (stereo partly shown) [Compound I-262] |  |
| > 75 | < 1 | > 75 | 1 to 10 |  |  | C[C@@H]1CNc2c(sc3ccc4nc(-c5cc(Cl)cc(N6CCN(CC7CCN(c8ccc9c(c8)n(C)c(=O)n9C8CCC(=O)NC8=O)CC7)CC6)c5)ccc4c23)C(=O)N1 (stereo partly shown) [Compound I-216] |  |
| > 75 | < 1 | > 75 | < 1 |  |  | Cc1cc(N2CCN(CC3CN(c4ccc5c(c4)n(C)c(=O)n5C4CCC(=O)NC4=O)C3)CC2)ccc1-c1ccc2c(ccc3sc4c(c32)NC[C@@H](C)NC4=O)n1 (stereo partly shown) [Compound I-236] |  |
| > 75 | < 1 | > 75 | 1 to 10 |  |  | C[C@@H]1Cc2[nH]c(-c3ccnc(-c4ccc(N5CCN(CC6CCN(c7cccc8c7n(C)c(=O)n8C7CCC(=O)NC7=O)CC6)CC5)cc4)c3)cc2C(=O)N1 (stereo partly shown) [Compound I-290] |  |
| > 75 | < 1 | > 75 | < 1 |  |  | C[C@@H]1CNc2c(sc3ccc4nc(-c5ccnc(N6CCN(CCCc7ccc8c(c7)n(C)c(=O)n8C7CCC(=O)NC7=O)CC6)c5)ccc4c23)C(=O)N1 (stereo partly shown) [Compound I-275] |  |
